Patent US20200031771A1, “SUBSTITUTED PHENYLPROPIONIC ACID ENANTIOMER AND MANUFACTURING METHOD, COMPOSITION, AND APPLICATION OF SAME” (SHENZHEN CHIPSCREEN BIOSCIENCES CO., LTD., priority 2016, published 2020)
Blank lines part the entries; values can stand above or below the compound they belong to.

Assays:
db/db mice [1] = assay: Glucose tolerance test (OTGG) in db/db mice after 14 days of administration; assay type: in vivo, mouse; settings: n = 10; for Blood glucose in glucose tolerance test, average value, 15 min: 15 min after oral 2 g/kg glucose; for Blood glucose in glucose tolerance test, average value, 30 min: 30 min after oral 2 g/kg glucose; for Blood glucose in glucose tolerance test, average value, 60 min: 60 min after oral 2 g/kg glucose; for Blood glucose in glucose tolerance test, average value, 120 min: 120 min after oral 2 g/kg glucose; for Glucose tolerance test AUC, average value: oral 2 g/kg glucose, 0-120 min; for Blood glucose in glucose tolerance test, average value, 0 min: overnight fast, before oral 2 g/kg glucose (0 min)
Protocol: (§1) The route of administration was oral, the dose was 20 mg/kg in the administration group and 5 mg/kg in the control group, the frequency of administration was once a day, and the administration period was 14 days. […] On days 0, 3, 6, 9, 12, and 14, after fasting for 6 hours after administration, blood was collected from the tail vein and fasting blood glucose levels was measured by a blood glucose meter and recorded.
After 14 days of administration, the animals were fasted overnight (<10 hours), and orally given 2 g/kg of glucose on the next day. Blood was collected from the tail vein at the 0 (pre-administration or fasting blood glucose level), 15, 30, 60 and 120 minutes after administration, respectively, and blood glucose levels were then measured by blood glucose meter and recorded.

human PPARα = biological target: T1, human PPARα (Homo sapiens, UniProt Q07869); assay: PPARα in vitro reporter gene assay (PPRE-luciferase) in L-02 cells; assay type: cell-based; settings: 24 h after compound addition, luciferase corrected by GFP, read-out: EC50 (semi-activating activity) activating PPARα
T1 construct: expressed in transfected cells; host or cells: L-02
T1 sequence (Q07869 1-468): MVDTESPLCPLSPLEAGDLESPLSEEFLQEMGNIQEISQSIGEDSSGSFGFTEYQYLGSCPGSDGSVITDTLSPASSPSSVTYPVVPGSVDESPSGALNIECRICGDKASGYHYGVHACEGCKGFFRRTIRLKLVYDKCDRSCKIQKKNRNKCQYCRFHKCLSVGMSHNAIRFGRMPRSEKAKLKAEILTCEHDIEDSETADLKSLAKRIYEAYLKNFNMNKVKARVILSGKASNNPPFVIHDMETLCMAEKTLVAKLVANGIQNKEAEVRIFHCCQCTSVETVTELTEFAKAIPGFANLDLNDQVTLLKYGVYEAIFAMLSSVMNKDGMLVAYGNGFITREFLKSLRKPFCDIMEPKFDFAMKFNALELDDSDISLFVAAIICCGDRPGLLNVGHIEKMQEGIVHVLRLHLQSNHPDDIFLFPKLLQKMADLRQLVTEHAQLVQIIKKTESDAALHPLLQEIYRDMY
Protocol: The PPARα reporter gene detection system comprises a pCDNA3.1 luciferase expression plasmid (PPRE enhancer element was inserted into the upstream of the promoter), a green fluorescent protein GFP expression plasmid, and a human PPARα expression plasmid.
(§2) The above plasmids were co-transfected (Fugene 6.0 transfection reagent) into human hepatoma cell line L-02. 48 hours after transfection, different concentrations of test compounds were added. 24 hours after administration, the cells were treated with a luciferase assay kit (Promega E1910) and the fluorescence intensity of GFP (wavelength 485-527 nm) and luciferase substrate (wavelength 562 nm) were detected using a fluorescence detector (Fluoroskan Ascent FL) respectively. The GFP signal was used as an internal reference to correct the detected luciferase substrate signal, and a relative reporter activation intensity was obtained by comparing the above corrected signal to the blank control (without treatment of the compounds). The semi-activating activity (EC50) of the test compound was calculated from concentration gradient data.

RXR/PPARγ heterodimer = biological target: T2, RXR/PPARγ heterodimer (Homo sapiens, UniProt P37231); assay: PPARγ in vitro reporter gene assay (pACOX reporter, PPARγ and RXR plasmids) in L-02 cells; assay type: cell-based; settings: 24 h after compound addition, luciferase corrected by GFP, read-out: EC50 (semi-activating activity) activating PPARγ
T2 construct: expressed in transfected cells; host or cells: L-02
T2 sequence (P37231 1-505): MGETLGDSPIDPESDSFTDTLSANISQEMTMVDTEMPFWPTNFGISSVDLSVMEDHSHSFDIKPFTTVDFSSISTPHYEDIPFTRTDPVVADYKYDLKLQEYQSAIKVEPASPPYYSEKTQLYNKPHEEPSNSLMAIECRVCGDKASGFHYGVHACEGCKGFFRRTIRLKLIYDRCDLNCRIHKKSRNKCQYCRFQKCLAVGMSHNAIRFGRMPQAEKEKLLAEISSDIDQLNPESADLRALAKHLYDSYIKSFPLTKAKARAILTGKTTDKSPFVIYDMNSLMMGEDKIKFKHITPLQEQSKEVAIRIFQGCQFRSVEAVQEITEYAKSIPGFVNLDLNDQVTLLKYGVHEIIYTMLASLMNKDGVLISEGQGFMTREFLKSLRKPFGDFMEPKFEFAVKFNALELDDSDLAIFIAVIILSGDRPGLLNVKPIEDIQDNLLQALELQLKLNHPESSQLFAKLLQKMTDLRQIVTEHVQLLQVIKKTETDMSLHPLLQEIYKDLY
T2 sequence (P19793 1-462 partner): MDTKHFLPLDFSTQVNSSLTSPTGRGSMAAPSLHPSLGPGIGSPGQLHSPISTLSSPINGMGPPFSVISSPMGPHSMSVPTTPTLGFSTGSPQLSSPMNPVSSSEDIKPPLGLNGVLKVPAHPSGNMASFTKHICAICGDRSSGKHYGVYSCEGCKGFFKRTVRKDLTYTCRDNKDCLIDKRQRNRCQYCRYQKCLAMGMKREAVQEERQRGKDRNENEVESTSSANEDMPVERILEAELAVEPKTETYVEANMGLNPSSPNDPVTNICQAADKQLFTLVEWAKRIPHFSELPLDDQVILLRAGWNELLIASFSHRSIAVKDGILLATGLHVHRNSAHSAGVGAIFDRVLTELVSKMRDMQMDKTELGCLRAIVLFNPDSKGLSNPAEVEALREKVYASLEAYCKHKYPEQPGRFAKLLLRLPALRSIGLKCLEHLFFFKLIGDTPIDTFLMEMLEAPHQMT
Protocol: The PPARγ reporter gene detection system comprises a pACOX fluorescent reporter gene plasmid (the promoter comprises PPRE sequence), PPARγ expression plasmid, RXR expression plasmid, and a green fluorescent protein GFP expression plasmid.
as §2, with “FL),” for “FL)”

[2] = biological target: T3, RXR/PPAR-6 heterodimer (PPARδ) (Homo sapiens, UniProt Q03181); assay: PPARδ in vitro reporter gene assay (pGL3-PPRE reporter, PPARδ and RXR plasmids) in L-02 cells; assay type: cell-based; settings: 24 h after compound addition, luciferase corrected by GFP, read-out: EC50 (semi-activating activity) activating PPAR-6
T3 construct: expressed in transfected cells; host or cells: L-02
T3 sequence (Q03181 1-441): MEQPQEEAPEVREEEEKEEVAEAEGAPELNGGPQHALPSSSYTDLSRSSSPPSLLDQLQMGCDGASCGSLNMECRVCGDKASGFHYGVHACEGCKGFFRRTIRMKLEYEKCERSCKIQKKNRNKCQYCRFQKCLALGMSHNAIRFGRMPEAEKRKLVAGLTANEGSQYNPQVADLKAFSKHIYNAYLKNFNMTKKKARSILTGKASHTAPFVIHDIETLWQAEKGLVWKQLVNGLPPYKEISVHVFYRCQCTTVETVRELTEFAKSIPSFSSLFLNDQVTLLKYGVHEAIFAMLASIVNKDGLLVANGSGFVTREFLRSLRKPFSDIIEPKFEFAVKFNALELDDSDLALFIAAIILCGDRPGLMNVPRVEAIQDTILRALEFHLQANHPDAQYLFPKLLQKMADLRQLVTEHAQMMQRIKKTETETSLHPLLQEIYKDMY
T3 sequence (P19793 1-462 partner): T2 sequence (P19793 1-462 partner)
Protocol: The PPARδ reporter gene detection system comprises a pGL3-PPRE fluorescent reporter gene plasmid (PPRE enhancer element was inserted into the upstream of the promoter), PPARδ expression plasmid, RXR expression plasmid, and a green fluorescent protein GFP expression plasmid.
as §2, with “Ascent FL),” for “Ascent FL)”, “signal is” for “signal was”

db/db mice [3] = assay: Fasting blood glucose in db/db mice during 14 days of oral administration; assay type: in vivo, mouse; settings: oral once a day, enantiomers 20 mg/kg, rosiglitazone 5 mg/kg, 6 h fasting; for Fasting blood glucose, average value, Day 0: Day 0, n = 10; for Fasting blood glucose, average value, Day 3: Day 3, n = 10; for Fasting blood glucose, average value, Day 6: Day 6, n = 10; for Fasting blood glucose, average value, Day 9: Day 9, n = 10; for Fasting blood glucose, average value, Day 12: Day 12, n = 10; for Fasting blood glucose, average value, Day 14: Day 14, n = 10
Protocol: as §1

EC50 (human PPARα): 5.38 µM | EC50 (RXR/PPARγ heterodimer): 2.71 µM | EC50 [2]: > 10 µM
SMILES: O=C(c1ccc(F)cc1)c1ccccc1NC(Cc1ccc(OCCn2c3ccccc3c3ccccc32)cc1)C(=O)O (single isomer, unassigned; (+)) [Enantiomer 2, (+)-2-[(2-(4-fluorobenzoyl)phenyl)amino]-3-[(4-(2-carbazole-ethoxy)phenyl)]propionic acid]
Blood glucose in glucose tolerance test, average value, 15 min (db/db mice [1]): 31.87 | Blood glucose in glucose tolerance test, average value, 30 min (db/db mice [1]): 33.3 | Blood glucose in glucose tolerance test, average value, 60 min (db/db mice [1]): 30.94 | Blood glucose in glucose tolerance test, average value, 120 min (db/db mice [1]): 25.75 | Glucose tolerance test AUC, average value (db/db mice [1]): 59.16 | Blood glucose in glucose tolerance test, average value, 0 min (db/db mice [1]): 17.18 | Fasting blood glucose, average value, Day 0 (db/db mice [3]): 18.86 | Fasting blood glucose, average value, Day 3 (db/db mice [3]): 23.99 | Fasting blood glucose, average value, Day 6 (db/db mice [3]): 20.03 | Fasting blood glucose, average value, Day 9 (db/db mice [3]): 26.01 | Fasting blood glucose, average value, Day 12 (db/db mice [3]): 26.44 | Fasting blood glucose, average value, Day 14 (db/db mice [3]): 17.18

EC50 (human PPARα): 1.14 µM | EC50 (RXR/PPARγ heterodimer): 0.076 µM | EC50 [2]: 1.93 µM
SMILES: O=C(c1ccc(F)cc1)c1ccccc1NC(Cc1ccc(OCCn2c3ccccc3c3ccccc32)cc1)C(=O)O (single isomer, unassigned; (-)) [Enantiomer 1, (−)-2-[(2-(4-fluorobenzoyl)phenyl)amino]-3-[(4-(2-carbazole-ethoxy)phenyl)]propionic acid]
Blood glucose in glucose tolerance test, average value, 15 min (db/db mice [1]): 28.02 | Blood glucose in glucose tolerance test, average value, 30 min (db/db mice [1]): 32.26 | Blood glucose in glucose tolerance test, average value, 60 min (db/db mice [1]): 26.6 | Blood glucose in glucose tolerance test, average value, 120 min (db/db mice [1]): 14.69 | Glucose tolerance test AUC, average value (db/db mice [1]): 47.77 | Blood glucose in glucose tolerance test, average value, 0 min (db/db mice [1]): 10.98 | Fasting blood glucose, average value, Day 0 (db/db mice [3]): 18.43 | Fasting blood glucose, average value, Day 3 (db/db mice [3]): 18.2 | Fasting blood glucose, average value, Day 6 (db/db mice [3]): 14.7 | Fasting blood glucose, average value, Day 9 (db/db mice [3]): 18.14 | Fasting blood glucose, average value, Day 12 (db/db mice [3]): 16.18 | Fasting blood glucose, average value, Day 14 (db/db mice [3]): 10.98

SMILES: CN(CCOc1ccc(CC2SC(=O)NC2=O)cc1)c1ccccn1 (centres unmarked) [rosiglitazone, reference compound]
Blood glucose in glucose tolerance test, average value, 15 min (db/db mice [1]): 28.11 | Blood glucose in glucose tolerance test, average value, 30 min (db/db mice [1]): 31.22 | Blood glucose in glucose tolerance test, average value, 60 min (db/db mice [1]): 25.08 | Blood glucose in glucose tolerance test, average value, 120 min (db/db mice [1]): 13.61 | Blood glucose in glucose tolerance test, average value, 0 min (db/db mice [1]): 11.29 | Fasting blood glucose, average value, Day 0 (db/db mice [3]): 19.09 | Fasting blood glucose, average value, Day 3 (db/db mice [3]): 13.58 | Fasting blood glucose, average value, Day 6 (db/db mice [3]): 13.8 | Fasting blood glucose, average value, Day 9 (db/db mice [3]): 15.05 | Fasting blood glucose, average value, Day 12 (db/db mice [3]): 14.44 | Fasting blood glucose, average value, Day 14 (db/db mice [3]): 11.29
